According to patent US8273787B2, “Activated cytotoxic compounds for attachment to targeting molecules for the treatment of mammalian disease conditions” (Onconova Therapeutics, Inc, priority 2006, dated 2012):

Tests used:
U266 = experiment: growth inhibition, multiple myeloma cell line U266; assay type: cell-based; settings: Homo sapiens, U-266, CD38 −/+ CD138 + CD20 −
Experimental: (§1) Two compounds were selected from our library of cytotoxic molecules for immunoconjugation since they both have IC50 values in the low nanomolar range. Various tumor cell lines (ATCC) were treated for 96 hours in the presence of increasing concentrations of each compound and the total number of viable cells remaining was determined after 96 hours of exposure. The IC50 value was determined to be the amount of drug required to inhibit the growth of each cell line 50% as compared to vehicle treated cells.
(§2) Pellat-Deceunynk, C., et al., Human Myeloma Cell Lines As A Tool For Studying The Biology Of Multiple Myeloma: A Reappraisal 18 Years After, Blood 86(10):4001-2 (1995); Gooding, R. P., et al., Phenotypic And Molecular Analysis Of Six Human Cell Lines Derived From Patients With Plasma Cell Dyscrasia, British Journal of Haematology 106:669-688 (1999).

T47D = experiment: growth inhibition, breast carcinoma cell line T47D; assay type: cell-based; settings: Homo sapiens, BREAST (ER+), HER2 +
Experimental: as §1
(§3) Certain embodiments of immunoconjugates described herein are targeted to HER2 expressing breast cancer cells. Certain embodiments of immunoconjugates described herein are targeted to multiple myeloma (MM) cell lines expressing the surface antigens CD38 and or CD138. The IC50 value of ON 015100 and ON 013100 was determined for a number of breast cell lines as well as a panel of multiple myeloma cell lines expressing varying levels of each antigen and the data are shown in table (4) and table (5), respectively. […] Two cell lines, SK-BR-3 and BT474, known to express very high levels of HER2 are more than 2 fold more sensitive to ON 013100 as compared to the cell lines which express lower levels of HER2. Marx C., et al., Validated High-Throughput Screening of Drug-Like Small Molecules for Inhibitors of ErbB2 Transcription. Assay Drug Dev. […]

Raji = experiment: 96 hour growth inhibition, Raji; assay type: cell-based; settings: Homo sapiens, Burkitt's Lymphoma (B-cell)
Experimental: as §1

Daudi = experiment: 96 hour growth inhibition, Daudi; assay type: cell-based; settings: Homo sapiens, Burkitt's Lymphoma (B-cell)
Experimental: as §1

Sk-OV-3 = experiment: 96 hour growth inhibition, Sk-OV-3; assay type: cell-based; settings: Homo sapiens, Sk-OV-3, OVARIAN
Experimental: as §1

MES-SA (PARENTAL) = experiment: growth inhibition, MES-SA (parental); assay type: cell-based; settings: Homo sapiens, uterine sarcoma
Experimental: as §1
(§4) Another extremely important predictive factor is the ability of these compounds to kill cell lines overexpressing multiple drug resistance (MDR) genes. A very high percentage of cancer patient relapses are due to some form of resistance to traditional chemotherapy. Of these patients, the vast majority express one or more of the MDR genes within the ABC transport gene family. Overexpression of these genes increases the efflux of compounds that are recognized by these pumping systems. […] Onconova's benzyl styryl sulfone compounds are not recognized by the MDR-1 gene and therefore provide an advantage over other highly toxic drugs including but not limited to the taxanes, doxorubicin, etoposide, and vinca-alkaloids. […] MES-SA/Dx5, uterine sarcoma, and […], ovarian, are both classical multidrug resistant cell lines that are cross resistant to the taxanes and anthracyclins. Harker, W G, and Sikic, B. I., Multidrug (Pleiotropic) Resistance In Doxorubicin-Selected Variants Of The Human Sarcoma Cell Line MES-SA, Cancer Res. 45(9):4091-6 (1985). MES-SA/Dx5 and Apr. […] Fujimori, A., et al., Mutation At The Catalytic Site Of Topoisomerase I In CEM/C2, A Human Leukemia Cell Line Resistant To Camptothecin, Cancer Res. 55(6): 1339-46 (1995). ON 01500 and ON 013100, for example, are both extremely active against these resistant cell lines.

A549 = experiment: 96 hour growth inhibition, A549; assay type: cell-based; settings: Homo sapiens, A549, NSCLC
Experimental: as §1

NCI-H929 = experiment: growth inhibition, multiple myeloma cell line NCI-H929; assay type: cell-based; settings: Homo sapiens, CD38 + CD138 + CD20 −
Experimental: as §1, §2

2008/17/4 (RESISTANT) = experiment: growth inhibition, 2008/17/4 (resistant); assay type: cell-based; settings: for RSIST-ANCE: 2008/17/4 (RESISTANT) versus 2008 (PARENTAL); for IC50: 2008/17/4 (RESISTANT), ovarian, multidrug resistant
Experimental: as §1, §4

MOLT-4 = experiment: 96 hour growth inhibition, MOLT-4; assay type: cell-based; settings: Homo sapiens, MOLT-4, T-lymphoblastic:ALL
Experimental: as §1

U87 = experiment: 96 hour growth inhibition, U87; assay type: cell-based; settings: Homo sapiens, U-87 MG, U87, GLIOBLASTOMA
Experimental: as §1

CEM/C2 (RESISTANT) = experiment: growth inhibition, CEM/C2 (resistant); assay type: cell-based, Human; settings: for RSIST-ANCE: CEM/C2 (RESISTANT) versus CEM (PARENTAL); for IC50: Homo sapiens, CEM/C2 (RESISTANT), non classical multiple drug resistant
Experimental: as §1, §4

BT474 = experiment: growth inhibition, breast carcinoma cell line BT474; assay type: cell-based; settings: Homo sapiens, BT-474; BT474, BREAST (ER+), HER2 ++++
Experimental: as §1, §3

H157 = experiment: 96 hour growth inhibition, H157; assay type: cell-based; settings: Homo sapiens, NCI-H157, H157, NSCLC
Experimental: as §1

SW480 = experiment: 96 hour growth inhibition, SW480; assay type: cell-based; settings: Homo sapiens, SW480, COLO-RECTAL
Experimental: as §1

OV-CAR-3 = experiment: 96 hour growth inhibition, OV-CAR-3; assay type: cell-based; settings: Homo sapiens, OVCAR-3, OV-CAR-3, OVARIAN
Experimental: as §1

PC-3 = experiment: 96 hour growth inhibition, PC-3; assay type: cell-based; settings: Homo sapiens, PC-3, PROSTATE (AR−)
Experimental: as §1

CEM = experiment: 96 hour growth inhibition, CEM; assay type: cell-based; settings: Homo sapiens, CCRF-CEM
Experimental: as §1, §4

N417 = experiment: 96 hour growth inhibition, N417; assay type: cell-based; settings: N417, SCLC
Experimental: as §1

SK-MEL-28 = experiment: 96 hour growth inhibition, SK-MEL-28; assay type: cell-based; settings: Homo sapiens, SK-MEL-28, MELANOMA
Experimental: as §1

HCT-116 = experiment: 96 hour growth inhibition, HCT-116; assay type: cell-based; settings: Homo sapiens, HCT-116, COLO-RECTAL
Experimental: as §1

MIA-PaCa2 = experiment: 96 hour growth inhibition, MIA-PaCa2; assay type: cell-based; settings: Homo sapiens, MIA PaCa-2
Experimental: as §1

SMILES | IC50 (U266) | IC50 (T47D) | IC50 (Raji) | IC50 (Daudi) | IC50 (Sk-OV-3) | IC50 (MES-SA (PARENTAL)) | IC50 (A549) | IC50 (NCI-H929) | RSIST-ANCE (2008/17/4 (RESISTANT)) | IC50 (2008/17/4 (RESISTANT)) | IC50 (MOLT-4) | IC50 (U87) | RSIST-ANCE (CEM/C2 (RESISTANT)) | IC50 (CEM/C2 (RESISTANT)) | IC50 (BT474) | IC50 (H157) | IC50 (SW480) | IC50 (OV-CAR-3) | IC50 (PC-3) | IC50 (CEM; CEM (PARENTAL)) | other results
COc1cc(OC)c(/C=C/S(=O)(=O)Cc2ccc(OC)c(O)c2)c(OC)c1 [ON 013100, (E)-5-((2,4,6-trimethoxystyrylsulfonyl)methyl)-2-methoxyphenol] | 5 nM | 10 nM | 1 nM | 3 nM | 4 nM | 5 nM | 10 nM | 1 nM | 1.3 | 6 nM | 1.5 nM | 7 nM | 0.75 | 3 nM | 3 nM | 7 nM | 5 nM | 30 nM | 5 nM | 4 nM | IC50 (CEM; CEM, […], 96 hours): 4 nM; IC50 (N417): 3 nM; IC50 (SK-MEL-28): 7 nM; IC50 (HCT-116): 6 nM; IC50 (MIA-PaCa2): 3 nM
COc1cc(OC)c(/C=C/S(=O)(=O)Cc2ccc(OC)c(N)c2)c(OC)c1 [ON 01500, (E)-2,4,6-trimethoxystyryl-4-methoxy-3-aminobenzylsulfone] | 3 nM | 3 nM | 2 nM | 3 nM | 3 nM | 4 nM | 3 nM | 0.8 nM | 1 | 3 nM | 4 nM | 3 nM | 1 | 10 nM | 2 nM | 4 nM | 6 nM | 3 nM | 6 nM | 10 nM | IC50 (CEM; CEM, […], 96 hours): 10 nM; IC50 (N417): 3 nM; IC50 (SK-MEL-28): 5 nM; IC50 (HCT-116): 6 nM; IC50 (MIA-PaCa2): 3 nM
